The text below walks through data of the supplement of paper PMC10307832.

Assay in all cases: relative viability (nuclei count vs DMSO), 5 days (fraction); higher = more cells survive
Compound in experiment [1]: C1CNCCC1C2=CC(=NN2)C3=CC=NC=C3 + N=C(N)NC(=N)NCCc1ccccc1 [Phenformin] (partner 250 µM)
The procedure, abridged: (§1)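 A single step with final 0.05% Triton X-100, 1% formaldehyde and 1 ug/ml Hoechst fixed the cells and stained nuclei 5 days after treatment. Lung cancer cell lines in 1536-well plates had been treated by pin tool the day after seeding with one drug alone or a fixed anchor-drug dose plus five library-drug doses (not always all listed) in √10 steps, and nuclei were counted on 4× images. Relative viability is the ratio of nuclei in treated wells to nuclei in vehicle wells, taken as the median of duplicate plates.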

Compound in experiment [2]: C1CNCCC1C2=CC(=NN2)C3=CC=NC=C3 + CC1(C)CCC(c2ccc(Cl)cc2)=C(CN2CCN(c3ccc(C(=O)NS(=O)(=O)c4ccc(N[C@H](CCN5CCOCC5)CSc5ccccc5)c(S(=O)(=O)C(F)(F)F)c4)cc3)CC2)C1 [Navitoclax] (partner 0.5 µM)
The procedure, abridged:
as §1

Compound in experiment [3]: C1CNCCC1C2=CC(=NN2)C3=CC=NC=C3 + Cc1cc(Nc2cc(N3CCN(C)CC3)nc(Sc3ccc(NC(=O)C4CC4)cc3)n2)n[nH]1 [Tozasertib] (partner 0.1 µM)
Put shortly: as §1

Compound in experiment [4]: C[C@@H](N)c1ccc(C(=O)Nc2ccnc3[nH]ccc23)cc1 + CS(=O)(=O)N1CCN(Cc2cc3nc(-c4cccc5[nH]ncc45)nc(N4CCOCC4)c3s2)CC1 [Pictilisib] (partner 1 µM)
Put shortly: as §1

In the case of UMC-11, the relative viability in experiment [1] (first compound 0.08 µM) was found to be 0.325; in experiment [1] (first compound 0.8 µM), 0.209; in experiment [1] (first compound 2.53 µM) it was 0.348; in experiment [1] (first compound 8 µM), 0.351; in experiment [2] (first compound 0.08 µM), 0.3; in experiment [2] (first compound 0.8 µM) it was 0.344. Moreover, the relative viability turned out to be 0.321 in experiment [2] (first compound 2.53 µM); 0.355 in experiment [2] (first compound 8 µM); 0.196 in experiment [3] (first compound 0.08 µM); 0.214 in experiment [3] (first compound 0.8 µM); 0.205 in experiment [3] (first compound 2.53 µM); 0.207 in experiment [3] (first compound 8 µM). Besides, the relative viability in experiment [4] (first compound 0.04 µM) stood at 0.715; in experiment [4] (first compound 0.1265 µM), 0.759; in experiment [4] (first compound 0.4 µM) it was 0.93; in experiment [4] (first compound 1.265 µM) it was 0.177; in experiment [4] (first compound 4 µM) it was 0.767.
